Values quoted from earlier work as cited in patent US20240423899A1, “LONGEVITY MOISTURIZING CREAM” (Wellbeam Consumer Health Intermediate, LLC, priority 2023, published 2024).

Tested on: skin
Settings: topical application

Question: With `C=C[C@@](C)(/C=C/c1ccc(O)cc1)CCC=C(C)C` [bakuchiol] as the compound, how does the “irritating effect on the skin” value read?
Answer: no irritating effect

Question: What about the “lines and wrinkles, pigmentation, elasticity, firmness, and overall reduction in photo-damage” value of the same compound?
Answer: significant improvement
